The record followed here is ChEMBL document CHEMBL1201862, “PubChem BioAssay data set” (2004).

Assay type in all cases: functional
Test [1] deals with T1, Caspase-3 (Homo sapiens, UniProt P42574).
T1 sequence (P42574 whole entry): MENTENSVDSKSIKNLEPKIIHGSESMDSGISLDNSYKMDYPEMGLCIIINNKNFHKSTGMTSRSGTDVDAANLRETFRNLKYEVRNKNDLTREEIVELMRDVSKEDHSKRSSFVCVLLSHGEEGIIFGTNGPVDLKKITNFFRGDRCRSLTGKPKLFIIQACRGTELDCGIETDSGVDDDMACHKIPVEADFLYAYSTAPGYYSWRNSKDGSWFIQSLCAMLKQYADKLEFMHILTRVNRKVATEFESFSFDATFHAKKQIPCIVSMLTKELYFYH

In test [2] the target is T2, Sentrin-specific protease 7 (Homo sapiens, UniProt Q9BQF6).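 Note: Luminescence-based dose-response confirmation of ultra-high-throughput screening hits, measuring inhibition of SENP7.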
T2 sequence (Q9BQF6 whole entry): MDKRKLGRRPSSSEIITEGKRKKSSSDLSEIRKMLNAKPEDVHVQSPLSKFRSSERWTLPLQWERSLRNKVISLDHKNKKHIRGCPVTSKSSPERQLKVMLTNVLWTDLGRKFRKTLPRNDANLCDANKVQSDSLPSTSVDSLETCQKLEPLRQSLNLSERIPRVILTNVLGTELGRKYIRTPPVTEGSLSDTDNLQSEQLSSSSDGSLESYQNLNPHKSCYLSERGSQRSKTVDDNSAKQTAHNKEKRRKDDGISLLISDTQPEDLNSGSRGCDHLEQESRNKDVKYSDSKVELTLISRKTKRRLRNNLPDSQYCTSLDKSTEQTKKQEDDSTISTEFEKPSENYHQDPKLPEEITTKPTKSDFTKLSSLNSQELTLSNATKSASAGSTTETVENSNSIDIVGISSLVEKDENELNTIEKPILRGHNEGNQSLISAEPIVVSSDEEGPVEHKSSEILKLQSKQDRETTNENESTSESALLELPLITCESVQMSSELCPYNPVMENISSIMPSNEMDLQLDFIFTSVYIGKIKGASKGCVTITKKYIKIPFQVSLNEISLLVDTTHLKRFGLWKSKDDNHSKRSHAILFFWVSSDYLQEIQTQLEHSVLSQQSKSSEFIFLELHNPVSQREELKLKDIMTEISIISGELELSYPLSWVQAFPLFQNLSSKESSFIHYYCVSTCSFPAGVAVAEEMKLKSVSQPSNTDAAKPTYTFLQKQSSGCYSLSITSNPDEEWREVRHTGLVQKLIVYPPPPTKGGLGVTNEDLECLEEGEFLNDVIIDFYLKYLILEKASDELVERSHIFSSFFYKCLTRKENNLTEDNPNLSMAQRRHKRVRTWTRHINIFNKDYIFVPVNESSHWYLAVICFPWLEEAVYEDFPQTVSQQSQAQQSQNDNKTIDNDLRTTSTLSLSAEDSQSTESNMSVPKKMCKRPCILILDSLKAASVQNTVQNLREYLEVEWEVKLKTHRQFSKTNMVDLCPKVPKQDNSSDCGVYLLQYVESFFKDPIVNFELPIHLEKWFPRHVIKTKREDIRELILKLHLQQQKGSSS

Test [3] deals with T3, Replicative DNA helicase DnaB (Mycobacterium tuberculosis, UniProt P9WMR3).
T3 sequence (P9WMR3 whole entry): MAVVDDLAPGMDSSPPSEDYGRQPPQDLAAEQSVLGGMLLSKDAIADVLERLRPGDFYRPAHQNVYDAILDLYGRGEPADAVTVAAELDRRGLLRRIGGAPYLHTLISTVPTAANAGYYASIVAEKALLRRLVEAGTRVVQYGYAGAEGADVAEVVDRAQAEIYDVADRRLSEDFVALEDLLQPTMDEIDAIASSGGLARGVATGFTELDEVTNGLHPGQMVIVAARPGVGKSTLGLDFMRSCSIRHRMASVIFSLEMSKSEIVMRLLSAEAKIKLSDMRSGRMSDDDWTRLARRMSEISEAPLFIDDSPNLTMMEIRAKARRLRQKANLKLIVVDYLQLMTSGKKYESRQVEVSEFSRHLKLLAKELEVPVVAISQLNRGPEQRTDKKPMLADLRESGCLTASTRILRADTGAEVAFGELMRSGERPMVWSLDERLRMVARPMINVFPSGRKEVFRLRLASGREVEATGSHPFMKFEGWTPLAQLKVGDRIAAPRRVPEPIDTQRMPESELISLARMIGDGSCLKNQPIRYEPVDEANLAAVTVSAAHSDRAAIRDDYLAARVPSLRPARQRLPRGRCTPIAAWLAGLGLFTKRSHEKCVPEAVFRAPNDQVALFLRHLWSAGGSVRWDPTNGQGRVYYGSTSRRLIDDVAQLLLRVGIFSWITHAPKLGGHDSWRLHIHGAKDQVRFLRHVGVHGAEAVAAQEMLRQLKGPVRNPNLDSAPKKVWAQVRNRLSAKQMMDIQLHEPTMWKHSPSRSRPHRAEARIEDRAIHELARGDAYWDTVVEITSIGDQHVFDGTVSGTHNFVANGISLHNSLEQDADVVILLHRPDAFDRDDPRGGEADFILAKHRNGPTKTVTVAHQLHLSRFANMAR
The experiment in a line: DnaB intein splicing inhibitors, dose response, biochemical, cell-free fluorescence (AID 449749).

Test [4] has as its target T4, Protein RecA (Mycobacterium tuberculosis, UniProt P9WHJ3).
T4 sequence (P9WHJ3 whole entry): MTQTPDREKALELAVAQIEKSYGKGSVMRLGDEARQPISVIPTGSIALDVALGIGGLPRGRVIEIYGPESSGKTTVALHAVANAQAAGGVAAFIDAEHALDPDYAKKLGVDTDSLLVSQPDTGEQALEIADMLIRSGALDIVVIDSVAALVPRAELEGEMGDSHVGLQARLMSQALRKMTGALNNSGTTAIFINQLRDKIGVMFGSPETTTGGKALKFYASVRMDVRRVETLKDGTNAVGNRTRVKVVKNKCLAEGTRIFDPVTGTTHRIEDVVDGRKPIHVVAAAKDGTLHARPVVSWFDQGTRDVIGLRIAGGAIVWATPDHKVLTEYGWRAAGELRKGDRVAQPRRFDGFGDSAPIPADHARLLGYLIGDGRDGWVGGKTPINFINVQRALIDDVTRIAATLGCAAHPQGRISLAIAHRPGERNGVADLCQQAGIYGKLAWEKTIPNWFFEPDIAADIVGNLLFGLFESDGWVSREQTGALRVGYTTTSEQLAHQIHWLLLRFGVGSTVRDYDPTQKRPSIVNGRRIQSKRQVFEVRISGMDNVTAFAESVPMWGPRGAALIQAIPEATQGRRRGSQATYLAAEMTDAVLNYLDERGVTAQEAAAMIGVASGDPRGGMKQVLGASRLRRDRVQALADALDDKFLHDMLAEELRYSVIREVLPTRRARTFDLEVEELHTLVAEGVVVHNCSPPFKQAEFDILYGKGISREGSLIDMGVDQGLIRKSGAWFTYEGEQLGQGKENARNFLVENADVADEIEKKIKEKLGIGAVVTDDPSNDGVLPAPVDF
In words: Fluorescence Cell-Free Homogeneous Dose Retest to Identify Inhibitors of RecA-Intein Splicing Activity. [Related pubchem assays (depositor defined):AID2097, AID2223, AID489010, AID492950].

Activity calls are given as the source filed them.

As for `c1ccc2c(Nc3nnc(-c4ccncc4)s3)cccc2c1`, the half-inhibitory concentration (IC50) in test [1] was 18.5 µM (active); in test [2], 5.51 µM (active).
Regarding `N#Cc1c(O)nc(SCC(=O)N2c3ccccc3Sc3ccccc32)nc1-c1ccccc1`, the concentration at half-maximal activity (AC50) in test [3] was 2.41 µM (active). Moreover, in test [4], the EC50 was 9.18 µM (active).
Regarding `COc1cc(C(=O)c2nccc3cc(OC)c(OC)cc23)c([N+](=O)[O-])cc1OC`, the IC50 in test [1] was 31.9 µM (active); in test [2], 2.93 µM (active). Also, the AC50 in test [3] was 0.273 µM (active). For the same molecule, the EC50 in test [4] was 0.16 µM (active).
